Experimental data published in US12527886B2, “Radiopharmaceuticals and composition for thrombus imaging” (THE ASAN FOUNDATION, priority 2020, dated 2026).

Tests used:
[1] = Stability of Tc-99m labeled compound, labeling purity by HPLC; assay type: physicochemical; settings: for radiochemical purity: cysteine and VB1, until 4 hours (Table 5)
Description: 2 mL of Tc-99m was added dropwise to a lyophilized vial including 0.1 mg of GP-104, 15 μg of SnCl2, and 10 μg of cysteine, the vial was allowed to stand at room temperature for 10 minutes, and the reaction was terminated by adjusting pH to 7 using a NaOH solution. Labeling purity was confirmed to be 93.21% by HPLC (analysis conditions: Luna C18 250×4.6 mm, phosphate buffer:acetonitrile (100:0, 0 to 5 minutes; 80:20, 5 to 10 minutes; 80:20, 17 minutes; 100:0, 17.1 minutes). 100:0. 20 min), 1.0 mL/min, UV=280 nm).
In order to confirm the effect of cysteine addition after the reaction, the following experiment was performed: 0.1 mg of GP-104 was dissolved in water for injection, the pH was adjusted to about 3.5 when 10 μL of SnCl2 (1.5 mg/mL) and 2 mL of Tc-99m were added thereto, and the resulting mixture was allowed to stand at room temperature for 10 minutes. The reaction was terminated by adjusting the pH to 7 using a NaOH solution and 10 μL of cysteine (1.0 mg/mL). Labeling purity was confirmed to be 91.4% using HPLC in the same manner as in Example 2-7.
After 0.1 mg of GP-104 was dissolved in water for injection, pH was adjusted to about 3.5 and the resulting solution was allowed to stand at room temperature for 10 minutes when 10 μL of SnCl2 (1.5 mg/mL), 10 μL of cysteine (1.0 mg/mL) and 2 mL of Tc-99m were added thereto, and the reaction was terminated by adjusting the pH to 7 using a NaOH solution. Labeling purity was confirmed to be 94.84% using HPLC in the same manner as in Example 2-7.
HCl and NaOH was additionally added dropwise to the solution of Example 2-8 to perform a stability evaluation by adjusting the final pH of the solution to acidic (pH 5.5) and basic (pH 8.5) conditions, and labeling purity was confirmed using HPLC in the same manner as in Example 2-7.
HCl and NaOH was additionally added dropwise to the solution of Example 2-9 to perform a stability evaluation by adjusting the final pH of the solution to acidic (pH 5.5) and basic (pH 8.5) conditions, and labeling purity was confirmed using HPLC in the same manner as in Example 2-7.
HCl and NaOH was additionally added dropwise to the solution of Example 2-10 to perform a stability evaluation by adjusting the final pH of the solution to acidic (pH 5.5) and basic (pH 8.5) conditions, and labeling purity was confirmed using HPLC in the same manner as in Example 2-7.
0.1 mg of GP-105 was dissolved in water for injection, the pH was adjusted to about 3.5 when 10 μL of SnCl2 (1.5 mg/mL) and 2 mL of Tc-99m were added thereto, and the resulting mixture was allowed to stand at room temperature for 10 minutes. The reaction was terminated by adjusting the pH to 7 using a NaOH solution and 10 μL of cysteine (1.0 mg/mL). Labeling purity was confirmed to be 98.1% using HPLC in the same manner as in Example 2-7.
HCl and NaOH was additionally added dropwise to the solution of Example 2-12 to perform a stability evaluation by adjusting the final pH of the solution to acidic (pH 5.5) and basic (pH 8.5) conditions, and labeling purity was confirmed using HPLC in the same manner as in Example 2-7.
HCl and NaOH was additionally added dropwise to the solution of Example 2-13 to perform a stability evaluation by adjusting the final pH of the solution to acidic (pH 5.5) and basic (pH 8.5) conditions, and labeling purity was confirmed using HPLC in the same manner as in Example 2-7.
HCl and NaOH was additionally added dropwise to the solution of Example 2-14 to perform a stability evaluation by adjusting the final pH of the solution to acidic (pH 5.5) and basic (pH 8.5) conditions, and labeling purity was confirmed using HPLC in the same manner as in Example 2-7.

glycoprotein IIb/IIIa = target: T1, glycoprotein IIb/IIIa (Rattus norvegicus, UniProt A0A8I6GGN2+Q8R2H2); experiment: Glycoprotein IIb/IIIa specific uptake in thrombotic disease model, gamma counter / microSPECT; assay type: in vivo, rats
T1 construct: a disease model in which a thrombus was formed with glycoprotein IIb/IIIa overexpressed; from tissue; host or cells: in vivo rat carotid artery thrombus (ferric chloride model)
Source text: After 6-week-old rats were anesthetized to make a thrombotic disease model, the carotid artery was secured by opening the skin on the carotid artery side. Then, a filter paper soaked with a 5% ferric chloride solution was exposed on the artery, and then washed three times or more with physiological saline, and the incised skin was sutured again to make a model. […]

[2] = gamma counter, sacrificed at the 2nd hour

T1 sequence (A0A8I6GGN2 32-1037): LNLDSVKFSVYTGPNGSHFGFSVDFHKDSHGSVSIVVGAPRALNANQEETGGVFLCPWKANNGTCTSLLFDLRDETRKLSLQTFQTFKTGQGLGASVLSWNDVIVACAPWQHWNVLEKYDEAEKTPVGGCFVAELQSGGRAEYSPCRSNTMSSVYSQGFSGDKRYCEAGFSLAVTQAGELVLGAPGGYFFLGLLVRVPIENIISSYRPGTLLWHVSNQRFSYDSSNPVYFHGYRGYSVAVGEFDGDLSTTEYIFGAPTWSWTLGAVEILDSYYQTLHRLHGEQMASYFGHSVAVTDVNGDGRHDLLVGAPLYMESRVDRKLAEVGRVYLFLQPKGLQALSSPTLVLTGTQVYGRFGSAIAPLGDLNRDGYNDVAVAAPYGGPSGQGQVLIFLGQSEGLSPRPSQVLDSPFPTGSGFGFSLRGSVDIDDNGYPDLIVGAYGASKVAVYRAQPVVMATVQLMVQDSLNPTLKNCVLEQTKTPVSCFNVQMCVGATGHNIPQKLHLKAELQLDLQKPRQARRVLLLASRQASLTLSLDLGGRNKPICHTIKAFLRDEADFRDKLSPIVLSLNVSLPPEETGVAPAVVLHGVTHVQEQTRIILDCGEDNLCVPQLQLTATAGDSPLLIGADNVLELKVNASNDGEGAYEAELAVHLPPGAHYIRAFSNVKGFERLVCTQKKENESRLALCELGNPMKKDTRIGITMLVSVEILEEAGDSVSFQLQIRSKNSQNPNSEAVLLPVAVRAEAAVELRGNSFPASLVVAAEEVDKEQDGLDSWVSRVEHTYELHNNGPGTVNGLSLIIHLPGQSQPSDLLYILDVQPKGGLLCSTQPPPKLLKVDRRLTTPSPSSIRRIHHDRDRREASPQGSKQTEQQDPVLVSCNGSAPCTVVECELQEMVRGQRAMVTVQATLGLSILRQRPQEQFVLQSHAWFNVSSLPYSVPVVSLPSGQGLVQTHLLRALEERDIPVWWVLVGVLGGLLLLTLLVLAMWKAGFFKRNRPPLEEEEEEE
T1 sequence (Q8R2H2 26-787): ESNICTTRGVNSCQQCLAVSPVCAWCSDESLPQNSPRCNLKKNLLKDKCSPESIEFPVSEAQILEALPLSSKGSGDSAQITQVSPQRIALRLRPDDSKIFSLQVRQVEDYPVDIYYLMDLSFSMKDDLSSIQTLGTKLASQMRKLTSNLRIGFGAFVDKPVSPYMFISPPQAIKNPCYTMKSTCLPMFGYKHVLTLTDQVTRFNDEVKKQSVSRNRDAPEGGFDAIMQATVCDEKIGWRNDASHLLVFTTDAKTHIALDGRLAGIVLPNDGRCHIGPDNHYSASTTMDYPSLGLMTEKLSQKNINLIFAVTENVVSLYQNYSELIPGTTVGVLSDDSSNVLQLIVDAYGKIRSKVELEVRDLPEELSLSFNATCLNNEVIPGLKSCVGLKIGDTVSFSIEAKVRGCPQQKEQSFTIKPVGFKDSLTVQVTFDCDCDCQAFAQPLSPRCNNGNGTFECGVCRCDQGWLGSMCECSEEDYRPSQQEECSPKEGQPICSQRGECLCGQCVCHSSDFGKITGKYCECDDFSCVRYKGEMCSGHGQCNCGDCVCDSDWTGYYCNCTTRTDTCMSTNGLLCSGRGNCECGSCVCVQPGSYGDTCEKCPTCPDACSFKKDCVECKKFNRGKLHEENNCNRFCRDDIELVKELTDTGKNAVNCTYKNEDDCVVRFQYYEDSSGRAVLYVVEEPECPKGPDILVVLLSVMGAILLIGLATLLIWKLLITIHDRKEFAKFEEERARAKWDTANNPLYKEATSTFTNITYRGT

- Purity ([1]; 165 nmol cysteine, acidic conditions, after 2 hours (Table 4)): ≤ 90%
- Purity ([1]; 165 nmol cysteine, basic conditions, until 2 hours (Table 4)): < 90%
- Purity ([1]; 165 nmol cysteine, neutral conditions, even after 4 hours (Table 4)): ≥ 90%
- purity (HPLC) ([1]; Ex 3-3, addition of cysteine after reaction, pH 3, 0 hour): 82.63%
- purity (HPLC) ([1]; Ex 3-3, addition of cysteine after reaction, pH 3, 1 hour): 70.01%
- purity (HPLC) ([1]; Ex 3-3, addition of cysteine after reaction, pH 3, 2 hours): 52.58%
- purity (HPLC) ([1]; Ex 3-3, addition of cysteine after reaction, pH 3, 4 hours): 30.38%
- purity (HPLC) ([1]; Ex 3-3, addition of cysteine after reaction, pH 7, 0 hour): 91.4%
- purity (HPLC) ([1]; Ex 3-3, addition of cysteine after reaction, pH 7, 1 hour): 91.42%
- purity (HPLC) ([1]; Ex 3-3, addition of cysteine after reaction, pH 7, 2 hours): 91.1%
- purity (HPLC) ([1]; Ex 3-3, addition of cysteine after reaction, pH 7, 3 hours): 90.3%
- purity (HPLC) ([1]; Ex 3-3, addition of cysteine after reaction, pH 7, 4 hours): 90.19%
- purity (HPLC) ([1]; Ex 3-3, addition of cysteine before reaction, pH 3, 1 hour): 92.7%
- purity (HPLC) ([1]; Ex 3-3, addition of cysteine before reaction, pH 3, 2 hours): 84.17%
- purity (HPLC) ([1]; Ex 3-3, addition of cysteine before reaction, pH 3, 3 hours): 76.77%
- purity (HPLC) ([1]; Ex 3-3, addition of cysteine before reaction, pH 3, 4 hours): 69.34%
- purity (HPLC) ([1]; Ex 3-3, addition of cysteine before reaction, pH 7, 0 hour): 94.84%
- purity (HPLC) ([1]; Ex 3-3, addition of cysteine before reaction, pH 7, 1 hour): 94.43%
- purity (HPLC) ([1]; Ex 3-3, addition of cysteine before reaction, pH 7, 2 hours): 97.66%
- purity (HPLC) ([1]; Ex 3-3, addition of cysteine before reaction, pH 7, 4 hours): 97.75%
- radiochemical purity ([1]; acidic conditions): ≥ 90%
- radiochemical purity ([1]; basic conditions): ≥ 80%
- radiochemical purity ([1]; pH of 7): ≥ 98%
- Purity ([1]; pH of 7 regardless of the timing of cysteine addition, even after 4 hours (text to Table 3)): ≥ 90%
- purity (HPLC) ([1]; solution of Example 2-8 (165 nmol cysteine), pH 5.5, 0 hr): 95.26%
- purity (HPLC) ([1]; solution of Example 2-8 (165 nmol cysteine), pH 5.5, 2 hr): 91.45%
- purity (HPLC) ([1]; solution of Example 2-8 (165 nmol cysteine), pH 5.5, 4 hr): 89.28%
- purity (HPLC) ([1]; solution of Example 2-8 (165 nmol cysteine), pH 7, 0 hr): 95.26%
- purity (HPLC) ([1]; solution of Example 2-8 (165 nmol cysteine), pH 7, 2 hr): 91.19%
- purity (HPLC) ([1]; solution of Example 2-8 (165 nmol cysteine), pH 7, 4 hr): 91.61%
- purity (HPLC) ([1]; solution of Example 2-8 (165 nmol cysteine), pH 8.5, 0 hr): 95.26%
- purity (HPLC) ([1]; solution of Example 2-8 (165 nmol cysteine), pH 8.5, 2 hr): 79.83%
- purity (HPLC) ([1]; solution of Example 2-8 (165 nmol cysteine), pH 8.5, 4 hr): 51.77%
- radiochemical purity (HPLC) ([1]; solution of Example 2-9 (82.5 nmol cysteine + 82.5 nmol VB1), pH 5.5, 0 hr): 100%
- radiochemical purity (HPLC) ([1]; solution of Example 2-9 (82.5 nmol cysteine + 82.5 nmol VB1), pH 5.5, 2 hr): 92.72%
- radiochemical purity (HPLC) ([1]; solution of Example 2-9 (82.5 nmol cysteine + 82.5 nmol VB1), pH 5.5, 4 hr): 91.20%
- radiochemical purity (HPLC) ([1]; solution of Example 2-9 (82.5 nmol cysteine + 82.5 nmol VB1), pH 7, 0 hr): 100%
- radiochemical purity (HPLC) ([1]; solution of Example 2-9 (82.5 nmol cysteine + 82.5 nmol VB1), pH 7, 2 hr): 98.63%
- radiochemical purity (HPLC) ([1]; solution of Example 2-9 (82.5 nmol cysteine + 82.5 nmol VB1), pH 7, 4 hr): 98.18%
- radiochemical purity (HPLC) ([1]; solution of Example 2-9 (82.5 nmol cysteine + 82.5 nmol VB1), pH 8.5, 0 hr): 100%
- radiochemical purity (HPLC) ([1]; solution of Example 2-9 (82.5 nmol cysteine + 82.5 nmol VB1), pH 8.5, 2 hr): 83.08%
- radiochemical purity (HPLC) ([1]; solution of Example 2-9 (82.5 nmol cysteine + 82.5 nmol VB1), pH 8.5, 4 hr): 80.97%
- radiochemical purity (HPLC) ([1]; solution of Example 2-10 (82.5 nmol cysteine + 82.5 nmol VB6), pH 5.5, 0 hr): 97.24%
- radiochemical purity (HPLC) ([1]; solution of Example 2-10 (82.5 nmol cysteine + 82.5 nmol VB6), pH 5.5, 2 hr): 90.29%
- radiochemical purity (HPLC) ([1]; solution of Example 2-10 (82.5 nmol cysteine + 82.5 nmol VB6), pH 5.5, 4 hr): 90.65%
- radiochemical purity (HPLC) ([1]; solution of Example 2-10 (82.5 nmol cysteine + 82.5 nmol VB6), pH 7, 0 hr): 97.24%
- radiochemical purity (HPLC) ([1]; solution of Example 2-10 (82.5 nmol cysteine + 82.5 nmol VB6), pH 7, 2 hr): 95.61%
- radiochemical purity (HPLC) ([1]; solution of Example 2-10 (82.5 nmol cysteine + 82.5 nmol VB6), pH 7, 4 hr): 96.25%
- radiochemical purity (HPLC) ([1]; solution of Example 2-10 (82.5 nmol cysteine + 82.5 nmol VB6), pH 8.5, 0 hr): 97.24%
- radiochemical purity (HPLC) ([1]; solution of Example 2-10 (82.5 nmol cysteine + 82.5 nmol VB6), pH 8.5, 2 hr): 95.61%
- radiochemical purity (HPLC) ([1]; solution of Example 2-10 (82.5 nmol cysteine + 82.5 nmol VB6), pH 8.5, 4 hr): 91.19%
- radiochemical purity (HPLC) ([1]; solution of Example 2-14 (82.5 nmol cysteine + 82.5 nmol VB6), pH 5.5, 0 hr): 100%
- radiochemical purity (HPLC) ([1]; solution of Example 2-14 (82.5 nmol cysteine + 82.5 nmol VB6), pH 5.5, 2 hr): 97.24%
- radiochemical purity (HPLC) ([1]; solution of Example 2-14 (82.5 nmol cysteine + 82.5 nmol VB6), pH 5.5, 4 hr): 95.61%
- radiochemical purity (HPLC) ([1]; solution of Example 2-14 (82.5 nmol cysteine + 82.5 nmol VB6), pH 7, 0 hr): 100%
- radiochemical purity (HPLC) ([1]; solution of Example 2-14 (82.5 nmol cysteine + 82.5 nmol VB6), pH 7, 2 hr): 98.56%
- radiochemical purity (HPLC) ([1]; solution of Example 2-14 (82.5 nmol cysteine + 82.5 nmol VB6), pH 7, 4 hr): 98.2%
- radiochemical purity (HPLC) ([1]; solution of Example 2-14 (82.5 nmol cysteine + 82.5 nmol VB6), pH 8.5, 0 hr): 100%
- radiochemical purity (HPLC) ([1]; solution of Example 2-14 (82.5 nmol cysteine + 82.5 nmol VB6), pH 8.5, 2 hr): 92.21%
- radiochemical purity (HPLC) ([1]; solution of Example 2-14 (82.5 nmol cysteine + 82.5 nmol VB6), pH 8.5, 4 hr): 89.62%
- specific uptake in the disease model (glycoprotein IIb/IIIa): high specific uptake
- target to non target ratio (glycoprotein IIb/IIIa; gamma counter, 2nd hour): 2.0
- counts per minute (CPM)/g value, left artery (glycoprotein IIb/IIIa; [2]): 1.3 CPM/g
- counts per minute (CPM)/g value, right artery (glycoprotein IIb/IIIa; [2]): 2.5 CPM/g
Structure (SMILES): O=C(O)C[C@H](NC(=O)[C@@H]1CCCN(C(=O)CCC2CCNCC2)C1)c1cncc(OCCNC(=O)CN2CCN3CCN(CC(=O)O)CC(=O)[O][99Tc+]([O]C(=O)C3)[O]C(=O)C2)c1 [[Tc-99m]GP-104]
- background radioactivity excretion (glycoprotein IIb/IIIa; microSPECT until 4 hours): quick background radioactivity excretion effect
